Reference: PubChem BioAssay AID190 (DTP/NCI, 2004)
Where “and” joins values, the source holds several entries; their conditions need not be identical. Identical values can stand only once. Inconclusive results and toxic doses are left out. How the source made its calls: active means survival T/C of 150% or more; inactive means T/C below 125% in these data.

Tested on: AKR/Lw mice, AKR lymphoma ip, median survival T/C
Experiment: NCI In Vivo Anticancer Drug Screen. Data for tumor model Lymphoma AKR (Transplanted) (intraperitoneal) in AKR/Lw mice
Settings: endpoint: median survival time, higher = longer survival
Experimental: The antitumor activity of compounds was measured in mice bearing transplantable tumors. Survival or tumor size were measured and the results are expressed as the measurement made in the treated group (T) divided by the measurement made in the vehicle treated control group (C). The tumor model used in this assay is Lymphoma AKR (Transplanted) (intraperitoneal) in AKR/Lw mice

[1] = dose: 100.0 mg/kg/injection, schedule: Q04DX003 (ip), vehicle: Klucel (hydroxypropylcellulose) (HPC)
[2] = dose: 200.0 mg/kg/injection, schedule: Q04DX003 (ip), vehicle: Klucel (hydroxypropylcellulose) (HPC)

Measured: T/C

COc1ccc2cc1Oc1ccc(cc1)C[C@H]1c3cc(c(OC)cc3CCN1C)Oc1c(OC)c(OC)cc3c1[C@H](C2)N(C)CC3
inactive: dose: 6.2 mg/kg/injection, schedule: Q01DX009 (ip), vehicle: Klucel (hydroxypropylcellulose) (HPC) 110 % of control | dose: 7.5 mg/kg/injection, schedule: Q01DX009 (ip), vehicle: saline 90 % of control | dose: 12.5 mg/kg/injection, schedule: Q01DX009 (ip), vehicle: Klucel (hydroxypropylcellulose) (HPC) 107 % of control and 113 % of control | dose: 12.5 mg/kg/injection, schedule: Q01DX009 (ip), vehicle: saline 111 % of control | dose: 25.0 mg/kg/injection, schedule: Q01DX001 (ip), vehicle: Klucel (hydroxypropylcellulose) (HPC) 94 % of control (2×) and 97 % of control | dose: 25.0 mg/kg/injection, schedule: Q01DX001 (ip), vehicle: saline 95 % of control | dose: 25.0 mg/kg/injection, schedule: Q01DX009 (ip), vehicle: Klucel (hydroxypropylcellulose) (HPC) 97 % of control and 100 % of control (2×) | dose: 25.0 mg/kg/injection, schedule: Q01DX009 (ip), vehicle: saline 94 % of control | dose: 25.0 mg/kg/injection, schedule: Q04DX003 (ip), vehicle: Klucel (hydroxypropylcellulose) (HPC) 87 % of control | dose: 25.0 mg/kg/injection, schedule: Q04DX003 (ip), vehicle: saline 88 % of control and 109 % of control | dose: 32.0 mg/kg/injection, schedule: Q04DX003 (ip), vehicle: water 100 % of control | dose: 50.0 mg/kg/injection, schedule: Q01DX001 (ip), vehicle: Klucel (hydroxypropylcellulose) (HPC) 94 % of control and 110 % of control | dose: 50.0 mg/kg/injection, schedule: Q01DX001 (ip), vehicle: saline 95 % of control | dose: 50.0 mg/kg/injection, schedule: Q01DX009 (ip), vehicle: Klucel (hydroxypropylcellulose) (HPC) 94 % of control and 107 % of control | dose: 50.0 mg/kg/injection, schedule: Q01DX009 (ip), vehicle: saline 94 % of control and 116 % of control | dose: 50.0 mg/kg/injection, schedule: Q04DX003 (ip), vehicle: Klucel (hydroxypropylcellulose) (HPC) 87 % of control | dose: 50.0 mg/kg/injection, schedule: Q04DX003 (ip), vehicle: saline 97 % of control and 111 % of control and 114 % of control | dose: 64.0 mg/kg/injection, schedule: Q04DX003 (ip), vehicle: water 96 % of control | dose: 75.0 mg/kg/injection, schedule: Q01DX001 (ip), vehicle: Klucel (hydroxypropylcellulose) (HPC) 94 % of control | dose: 100.0 mg/kg/injection, schedule: Q01DX009 (ip), vehicle: Klucel (hydroxypropylcellulose) (HPC) 100 % of control | dose: 100.0 mg/kg/injection, schedule: Q01DX009 (ip), vehicle: saline 100 % of control and 106 % of control | [1] 97 % of control | dose: 100.0 mg/kg/injection, schedule: Q04DX003 (ip), vehicle: saline 98 % of control and 100 % of control and 111 % of control | dose: 128.0 mg/kg/injection, schedule: Q04DX003 (ip), vehicle: water 107 % of control | dose: 200.0 mg/kg/injection, schedule: Q01DX001 (ip), vehicle: saline 87 % of control and 104 % of control and 111 % of control | dose: 200.0 mg/kg/injection, schedule: Q01DX009 (ip), vehicle: saline 88 % of control and 94 % of control | [2] 100 % of control | dose: 200.0 mg/kg/injection, schedule: Q04DX003 (ip), vehicle: saline 97 % of control | dose: 256.0 mg/kg/injection, schedule: Q04DX003 (ip), vehicle: water 100 % of control | dose: 400.0 mg/kg/injection, schedule: Q01DX001 (ip), vehicle: saline 93 % of control and 100 % of control (2×)

Nc1nc(N)nc(N)n1
inactive: [1] 97 % of control | [2] 108 % of control | dose: 400.0 mg/kg/injection, schedule: Q04DX003 (ip), vehicle: Klucel (hydroxypropylcellulose) (HPC) 86 % of control | dose: 800.0 mg/kg/injection, schedule: Q04DX003 (ip), vehicle: Klucel (hydroxypropylcellulose) (HPC) 105 % of control
